We go through five molecules from patent US5994398A, “Arylsulfonamides as phospholipase A2 inhibitors” (Elan Pharmaceuticals, Inc., priority 1996, dated 1999).

The subject of test [1] is Ca^+2 -independent PLA2. To be noted: Ackermann et al. (1995); cited from earlier work.
Test [2] concerns cPLA2. As to conditions: Street et al. (1993); cited from earlier work.
Test [3] concerns Alzheimer's Disease patients. As to conditions: selected group of five AD patients; cited from earlier work.
For test [4], the system named is IL-1β and TNF-α release in cultured microglial cells. Description: Aβ1-40-induced cytokine (IL-1β and TNF-α) release in microglia, ELISA. The format is cell-based, human. To be noted: 50 μM Aβ1-40, cultured microglia, vs vehicle control. Here is the method: Cultures of human cortical astrocytes and microglia were prepared using a modification of the procedure described for cortical neurons. Cortical tissue from fetuses of 16 to 20 weeks of gestation was washed 3 times in Ca^2+ /Mg^2+ free Hanks balanced salt solution (CMF HBSS) and then dissociated by repeated pipetting. The solution was brought to a final volume of 80 mL CMF HBSS for approximately 10 mL of tissue. DNase (Sigma) was added to a final concentration of 0.05 mg/mL. 20 mL of the solution was passed through one 100 μm nylon cell strained (Falcon). The cells were then centrifuged for 5 minutes at 200×G in an IEC Clinical Centrifuge and resuspended in a trypsin/EDTA solution (0.05% trypsin+0.53 mM EDTA in HBSS; Gibco) and incubated for 20 minutes at 37° C. (10 mL of trypsin was added per 2-3 mL of tissue). The trypsin was then inactivated by adding (MEM/FBS): Modified Eagle's Medium (MEM) containing 1% glucose, 1 mM sodium pyruvate, 1 mM glutamine, and supplemented with 10% fetal bovine serum (JRH). After adding a final concentration of 0.05 mg/mL DNase the cells were resuspended and then pelleted by centrifugation and resuspended in MEM/FBS. […]
Cultured microglial cells were treated with 50 μM of Aβ1-40 or vehicle only (Control). The levels of IL-1β and TNF-α released into the culture medium were determined by ELISA assay (R&D Systems) according to manufacturer's instructions. […]
For orientation: An ELISA detects its analyte on a solid surface through an enzyme-linked reagent.

`O=C1O/C(=C/Br)CCC1c1cccc2ccccc12` (stereo not drawn) [Bromoenol lactone]: in test [1], the “inhibition of Ca+2-independent PLA2 activity” value is “capable of inhibiting”. In addition, the “inhibition of cPLA2” value in test [2] is recorded as “capable of inhibiting”.

Consider `CCCCC/C=C\C/C=C\C/C=C\C/C=C\CCCC(=O)C(F)(F)F` [arachidonyl trifluoromethyl ketone], for which the “inhibition of Ca+2-independent PLA2 activity” value in test [1] is “capable of inhibiting”. Moreover, the “inhibition of cPLA2” value in test [2] is reported as “capable of inhibiting”.

On to `COc1ccc2c(c1)c(CC(=O)O)c(C)n2C(=O)c1ccc(Cl)cc1` [indomethacin], for which, in test [3], the “effects on neuropathological progression” value is given as “no effects on neuropathological progression were noted” and the “symptomatic progression of AD” value is recorded as “allegedly useful in reducing symptomatic progression”.

For the molecule `CCCCCCCCCCCCCCCC(=O)C(F)(F)F` [palmitoyl trifluoromethyl ketone], in test [1], the “inhibition of Ca+2-independent PLA2 activity” value is recorded as “capable of inhibiting”. Moreover, the “inhibition of cPLA2” value in test [2] is “capable of inhibiting”.

“Aβ1-40: Amyloid-β (Aβ) peptide 1-40, stock solutions 1 mM in sterile ddH2O”: the “stimulation of release of IL-1β and TNF-α into culture medium” value in test [4] is “found to stimulate the release of IL-1β and TNF-α”.
